In ChEMBL document CHEMBL5260838 (J Med Chem, 2019):
≈ marks a conversion by molar mass, not a printed value.

Key:
[1] = target: T1, Sodium channel protein type 9 subunit alpha (Homo sapiens, UniProt Q15858); experiment: Displacement of [3H]GX-545 from human Nav1.7 alpha subunit expressed in HEK293 cells co-expressing beta1 subunit by liquid scintillation counting analysis; type: cell-based
[2] = target: T1, Sodium channel protein type 9 subunit alpha; experiment: Inhibition of human Nav1.7 alpha subunit expressed in HEK293 cells co-expressing beta1 subunit at -60 mV holding potential by whole-cell patch voltage clamp electrophysiology recording; type: cell-based
[3] = Lipophilicity, logD of the compound at pH 7.4; type: physicochemical; conditions: buffer, read-out: logD
[4] = AUC in Sprague-Dawley rat at 5 mg/kg, po; type: ADME, organism-based; parameters: dose 5 mg/kg, route po; conditions: in vivo
[5] = target: Sodium channel protein type 8 subunit alpha (Homo sapiens, UniProt Q9UQD0); experiment: Inhibition of human Nav1.6 alpha subunit expressed in HEK293 cells co-expressing beta1 subunit at -35 mV holding potential by PatchXpress automated voltage clamp electrophysiology technique; type: cell-based
[6] = target: Sodium channel protein type 2 subunit alpha (Homo sapiens, UniProt Q99250); experiment: Inhibition of human Nav1.2 alpha subunit expressed in HEK293 cells co-expressing beta1 subunit at -35 mV holding potential by PatchXpress automated voltage clamp electrophysiology technique; type: cell-based
[7] = test system: Mus musculus; experiment: Antinociceptive activity against aconitine-induced pain in FVB mouse model expressing human Nav 1.7 I848T mutant assessed as reduction in nociceptive behavior at 3 mg/kg administered 120 mins prior to aconitine administration and measured after 70 mins relative to control; type: functional; parameters: scale not given: the % may be the effect or the level left; conditions: time 190 min, 3.167 h
[8] = target: Sodium channel protein type 1 subunit alpha (Homo sapiens, UniProt P35498); experiment: Inhibition of human Nav1.1 alpha subunit expressed in HEK293 cells co-expressing beta1 subunit at -40 mV holding potential by PatchXpress automated voltage clamp electrophysiology technique; type: cell-based
[9] = test system: Mus musculus; experiment: Antinociceptive activity against aconitine-induced pain in FVB mouse model expressing human Nav 1.7 I848T mutant assessed as reduction in nociceptive behavior at 6 mg/kg administered 120 mins prior to aconitine administration and measured after 70 mins relative to control; type: functional; parameters: scale not given: the % may be the effect or the level left; conditions: time 190 min, 3.167 h
[10] = Protein binding in human plasma; type: ADME, cell-free; conditions: read-out: PPB (converted)
[11] = Apparent permeability from apical to basolateral side in MDCK1 cells; type: ADME, cell-based, Canis lupus familiaris; conditions: dog, MDCK
[12] = Cmax in FVB mouse at 30 mg/kg, po; type: ADME, organism-based; parameters: dose 30 mg/kg, route po; conditions: in vivo
[13] = Half-life in Sprague-Dawley rat at 1 mg/kg, iv; type: ADME, organism-based; conditions: in vivo
[14] = target: Sodium channel protein type 9 subunit alpha (Rattus norvegicus, UniProt O08562); experiment: Inhibition of rat Nav1.7 at -60 mV holding potential by PatchXpress automated voltage clamp electrophysiology technique
[15] = Half-life in Sprague-Dawley rat at 5 mg/kg, po; type: ADME, organism-based; conditions: in vivo
[16] = Clearance in FVB mouse at 1 mg/kg, iv; type: ADME, organism-based; conditions: in vivo
[17] = Kinetic solubility of compound; type: physicochemical; conditions: read-out: Kinetic_solubility
[18] = Volume of distribution at steady state in FVB mouse at 1 mg/kg, iv; type: ADME, organism-based; conditions: FVB, in vivo, read-out: Vdss
[19] = Volume of distribution at steady state in Sprague-Dawley rat at 1 mg/kg, iv; type: ADME, organism-based; conditions: in vivo, read-out: Vdss
[20] = target: Sodium channel protein type 9 subunit alpha (Mus musculus, UniProt Q62205); experiment: Inhibition of mouse Nav1.7 at -60 mV holding potential by PatchXpress automated voltage clamp electrophysiology technique
[21] = Clearance in Sprague-Dawley rat at 1 mg/kg, iv; type: ADME, organism-based; conditions: in vivo
[22] = Half-life in FVB mouse at 30 mg/kg, po; type: ADME, organism-based; conditions: in vivo
[23] = Cmax in Sprague-Dawley rat at 5 mg/kg, po; type: ADME, organism-based; parameters: dose 5 mg/kg, route po; conditions: in vivo
[24] = Half-life in FVB mouse at 1 mg/kg, iv; type: ADME, organism-based; conditions: FVB, in vivo
[25] = test system: MDR1; experiment: Apparent permeability from apical to basolateral side in MDCK1 cells expressing MDR1; type: ADME, cell-based, Canis lupus familiaris; conditions: dog, MDCK-MDR1
[26] = target: Sodium channel protein type 5 subunit alpha (Homo sapiens, UniProt Q14524); experiment: Inhibition of human Nav1.5 alpha subunit expressed in HEK293 cells co-expressing beta1 subunit at -60 mV holding potential by PatchXpress automated voltage clamp electrophysiology technique; type: cell-based
[27] = Oral bioavailability in FVB mouse at 30 mg/kg; type: ADME, organism-based; conditions: in vivo
[28] = Protein binding in mouse plasma; type: ADME, cell-free; conditions: read-out: PPB (converted)
[29] = test system: mouse breast cancer resistant protein (Bcrp); experiment: Apparent permeability from apical to basolateral side in MDCK-II cells expressing mouse breast cancer resistant protein; type: ADME, cell-based, Canis lupus familiaris; conditions: dog
[30] = Protein binding in rat plasma; type: ADME, cell-free; conditions: read-out: PPB (converted)
[31] = AUC in FVB mouse at 30 mg/kg, po; type: ADME, organism-based; parameters: dose 30 mg/kg, route po; conditions: in vivo
[32] = test system: Mus musculus; experiment: Antinociceptive activity against aconitine-induced pain in FVB mouse model expressing human Nav 1.7 I848T mutant assessed as reduction in nociceptive behavior at 10 mg/kg administered 120 mins prior to aconitine administration and measured after 70 mins relative to control; type: functional; parameters: scale not given: the % may be the effect or the level left; conditions: time 190 min, 3.167 h
[33] = Oral bioavailability in Sprague-Dawley rat at 5 mg/kg; type: ADME, organism-based; conditions: in vivo
[34] = target: Sodium channel protein type 10 subunit alpha (Mus musculus) (UniProt Q6QIY3); experiment: Inhibition of TTX-resistant Nav1.8 in mouse dorsal root ganglion neuron at 10 uM by voltage clamp recording relative to control; type: tissue-based; conditions: DRG neuron
Chain of Sodium channel protein type 10 subunit alpha (Mus musculus) (Q6QIY3 whole entry): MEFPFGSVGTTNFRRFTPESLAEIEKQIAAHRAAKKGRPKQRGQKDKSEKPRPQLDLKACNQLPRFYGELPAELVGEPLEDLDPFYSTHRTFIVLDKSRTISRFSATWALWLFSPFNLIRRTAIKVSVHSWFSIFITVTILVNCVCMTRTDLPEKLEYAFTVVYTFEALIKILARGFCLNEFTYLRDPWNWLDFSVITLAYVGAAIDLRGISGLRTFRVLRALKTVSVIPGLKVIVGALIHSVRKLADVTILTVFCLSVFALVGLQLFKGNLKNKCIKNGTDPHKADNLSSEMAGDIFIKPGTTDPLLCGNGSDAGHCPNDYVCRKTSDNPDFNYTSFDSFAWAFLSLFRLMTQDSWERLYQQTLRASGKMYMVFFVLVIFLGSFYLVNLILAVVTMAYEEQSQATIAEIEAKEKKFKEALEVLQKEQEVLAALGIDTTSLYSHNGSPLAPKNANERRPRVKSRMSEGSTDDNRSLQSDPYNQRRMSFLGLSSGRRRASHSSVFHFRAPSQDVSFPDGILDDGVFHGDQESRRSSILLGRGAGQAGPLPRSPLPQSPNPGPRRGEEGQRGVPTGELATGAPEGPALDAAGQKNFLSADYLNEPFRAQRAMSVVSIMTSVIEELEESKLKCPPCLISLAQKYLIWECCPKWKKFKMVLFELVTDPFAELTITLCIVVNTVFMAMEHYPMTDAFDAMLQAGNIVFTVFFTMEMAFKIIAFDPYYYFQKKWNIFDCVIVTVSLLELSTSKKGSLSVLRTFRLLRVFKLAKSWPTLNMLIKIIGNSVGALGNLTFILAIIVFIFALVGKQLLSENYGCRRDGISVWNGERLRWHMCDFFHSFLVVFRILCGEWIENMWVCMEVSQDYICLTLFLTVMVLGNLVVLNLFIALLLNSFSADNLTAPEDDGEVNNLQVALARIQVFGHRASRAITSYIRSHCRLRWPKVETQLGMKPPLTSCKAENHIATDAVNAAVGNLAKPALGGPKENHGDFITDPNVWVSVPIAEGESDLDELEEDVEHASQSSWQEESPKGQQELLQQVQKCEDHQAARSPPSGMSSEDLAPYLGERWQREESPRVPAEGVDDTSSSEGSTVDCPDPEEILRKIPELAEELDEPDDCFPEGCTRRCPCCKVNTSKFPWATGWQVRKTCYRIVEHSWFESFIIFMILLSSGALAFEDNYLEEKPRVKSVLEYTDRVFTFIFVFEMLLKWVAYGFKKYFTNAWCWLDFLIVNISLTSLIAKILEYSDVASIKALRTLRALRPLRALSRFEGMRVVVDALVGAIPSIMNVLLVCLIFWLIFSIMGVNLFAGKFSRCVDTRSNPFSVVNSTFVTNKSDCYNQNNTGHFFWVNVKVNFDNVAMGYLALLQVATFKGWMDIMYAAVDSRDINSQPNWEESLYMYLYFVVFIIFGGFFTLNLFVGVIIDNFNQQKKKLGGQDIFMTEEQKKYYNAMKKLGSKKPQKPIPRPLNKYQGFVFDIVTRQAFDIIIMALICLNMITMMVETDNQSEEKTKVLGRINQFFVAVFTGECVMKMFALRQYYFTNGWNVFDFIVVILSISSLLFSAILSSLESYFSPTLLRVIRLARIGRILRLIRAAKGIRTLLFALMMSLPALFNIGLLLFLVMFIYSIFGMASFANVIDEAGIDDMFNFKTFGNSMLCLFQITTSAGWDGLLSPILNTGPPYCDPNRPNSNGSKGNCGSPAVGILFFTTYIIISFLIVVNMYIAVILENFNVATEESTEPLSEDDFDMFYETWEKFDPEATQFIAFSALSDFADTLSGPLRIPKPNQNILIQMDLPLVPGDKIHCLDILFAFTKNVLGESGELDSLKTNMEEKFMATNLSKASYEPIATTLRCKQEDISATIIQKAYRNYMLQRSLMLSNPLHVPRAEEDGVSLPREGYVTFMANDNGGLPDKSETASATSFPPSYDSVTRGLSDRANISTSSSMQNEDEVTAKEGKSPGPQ

T1 sequence (Q15858 whole entry): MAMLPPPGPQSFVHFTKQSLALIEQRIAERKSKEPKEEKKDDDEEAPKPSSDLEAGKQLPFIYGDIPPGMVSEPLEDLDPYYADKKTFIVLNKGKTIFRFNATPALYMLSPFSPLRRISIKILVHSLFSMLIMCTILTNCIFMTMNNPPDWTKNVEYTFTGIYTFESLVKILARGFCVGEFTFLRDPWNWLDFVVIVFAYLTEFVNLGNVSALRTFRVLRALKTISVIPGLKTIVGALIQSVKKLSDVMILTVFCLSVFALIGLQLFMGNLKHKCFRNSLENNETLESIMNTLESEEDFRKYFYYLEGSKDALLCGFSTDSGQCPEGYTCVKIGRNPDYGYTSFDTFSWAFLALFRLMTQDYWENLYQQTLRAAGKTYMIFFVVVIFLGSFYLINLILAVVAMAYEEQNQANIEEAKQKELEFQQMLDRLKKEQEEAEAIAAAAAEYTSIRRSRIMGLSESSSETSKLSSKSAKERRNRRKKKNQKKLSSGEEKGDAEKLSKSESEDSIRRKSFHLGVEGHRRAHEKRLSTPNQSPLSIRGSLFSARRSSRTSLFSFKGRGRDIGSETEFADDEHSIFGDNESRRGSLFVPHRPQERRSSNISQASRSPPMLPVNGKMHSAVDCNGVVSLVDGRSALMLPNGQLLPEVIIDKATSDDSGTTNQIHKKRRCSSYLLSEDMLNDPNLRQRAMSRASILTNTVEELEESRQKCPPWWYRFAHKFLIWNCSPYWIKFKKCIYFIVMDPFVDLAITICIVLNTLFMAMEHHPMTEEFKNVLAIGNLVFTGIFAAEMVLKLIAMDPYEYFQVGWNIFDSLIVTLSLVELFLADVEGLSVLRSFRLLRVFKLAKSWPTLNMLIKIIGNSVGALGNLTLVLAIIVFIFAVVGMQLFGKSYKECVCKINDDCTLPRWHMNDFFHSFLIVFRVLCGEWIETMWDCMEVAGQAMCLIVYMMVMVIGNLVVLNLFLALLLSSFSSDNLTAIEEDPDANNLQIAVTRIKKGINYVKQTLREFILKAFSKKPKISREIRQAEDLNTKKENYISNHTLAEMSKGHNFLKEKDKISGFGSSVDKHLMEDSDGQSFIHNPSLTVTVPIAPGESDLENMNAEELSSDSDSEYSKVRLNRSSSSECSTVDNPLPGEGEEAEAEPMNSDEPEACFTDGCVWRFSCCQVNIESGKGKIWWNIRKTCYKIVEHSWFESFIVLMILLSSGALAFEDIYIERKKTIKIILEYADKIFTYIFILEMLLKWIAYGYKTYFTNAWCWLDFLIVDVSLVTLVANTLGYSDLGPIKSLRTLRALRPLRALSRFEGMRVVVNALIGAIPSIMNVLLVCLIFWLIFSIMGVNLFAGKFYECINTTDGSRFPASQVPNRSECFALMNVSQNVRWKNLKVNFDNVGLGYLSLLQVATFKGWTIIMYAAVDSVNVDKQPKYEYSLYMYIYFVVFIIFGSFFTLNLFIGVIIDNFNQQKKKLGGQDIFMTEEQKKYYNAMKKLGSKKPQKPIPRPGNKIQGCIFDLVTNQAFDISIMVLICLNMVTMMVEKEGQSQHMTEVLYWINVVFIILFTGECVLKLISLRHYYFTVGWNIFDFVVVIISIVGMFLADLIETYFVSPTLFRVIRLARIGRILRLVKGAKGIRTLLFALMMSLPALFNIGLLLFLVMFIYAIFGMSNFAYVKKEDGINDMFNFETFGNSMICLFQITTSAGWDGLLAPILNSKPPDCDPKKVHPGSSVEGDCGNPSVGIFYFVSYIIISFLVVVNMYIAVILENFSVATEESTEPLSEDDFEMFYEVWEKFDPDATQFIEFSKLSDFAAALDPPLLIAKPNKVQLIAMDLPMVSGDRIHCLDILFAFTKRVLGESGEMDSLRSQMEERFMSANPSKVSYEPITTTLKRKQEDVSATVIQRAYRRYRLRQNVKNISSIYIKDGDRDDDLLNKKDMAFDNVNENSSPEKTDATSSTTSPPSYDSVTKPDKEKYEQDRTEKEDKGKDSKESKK

Structure (SMILES): CS(=O)(=O)NC(=O)c1cc(Cl)c(OCC23CC4CC(CC(C4)C2)C3)cc1Cl
- IC50 [1]: 2300 nM
- IC50 [2]: 570 nM

Structure (SMILES): CS(=O)(=O)NC(=O)c1cc(Cl)c(OCC23CC4CC(CC(F)(C4)C2)C3)cc1F
- IC50 [1]: 357 nM

Structure (SMILES): CS(=O)(=O)NC(=O)c1cc(Cl)c(OCCC2CC2)cc1F
- logD [3]: 0.4
- IC50 [1]: 2700 nM
- IC50 [2]: 440 nM

Structure (SMILES): CS(=O)(=O)NC(=O)c1cc(Cl)c(OCC23CC4CC(CC(O)(C4)C2)C3)cc1F
- IC50 [1]: > 10000 nM
- IC50 [2]: 2200 nM

Structure (SMILES): O=C(NS(=O)(=O)C1CC1)c1cc(C2CC2)c(OCC2CCC(F)(F)CC2)cc1F
- IC50 [1]: 33 nM

Structure (SMILES): CS(=O)(=O)NC(=O)c1cc(Cl)c(OCC23CC4(F)CC(F)(CC(F)(C4)C2)C3)cc1F
- IC50 [1]: 2400 nM
- IC50 [2]: 752 nM

Structure (SMILES): CC1(COc2cc(F)c(C(=O)NS(=O)(=O)C3CC3)cc2C2CC2)CCC(F)(F)CC1
- AUC [4]: 160 µM·h
- IC50 [5]: 49 nM
- IC50 [6]: 6 nM
- Activity [7]: 56%
- IC50 [8]: 48 nM
- Activity [9]: 72%
- fraction unbound [10]: 0.004
- Papp A→B [11]: 22 ×10⁻⁶ cm/s
- Cmax [12]: 69 µM
- half-life [13]: 9 h
- IC50 [14]: 9 nM
- half-life [15]: 16.9 h
- clearance [16]: 1.6 mL/min/kg
- solubility kinetic [17]: 32 µM (≈ 14.3 µg/mL)
- Vd [18]: 0.28 L/kg
- Vd [19]: 0.29 L/kg
- IC50 [20]: 2.5 nM
- clearance [21]: 0.4 mL/min/kg
- logD [3]: 1.4
- half-life [22]: 15.6 h
- Cmax [23]: 25 µM
- half-life [24]: 2.1 h
- Papp A→B [25]: 11 ×10⁻⁶ cm/s
- IC50 [26]: 260 nM
- bioavailability [27]: 49%
- fraction unbound [28]: 0.002
- Papp A→B [29]: 0.4 ×10⁻⁶ cm/s
- fraction unbound [30]: 0.002
- AUC [31]: 350 µM·h
- Activity [32]: 84%
- bioavailability [33]: 66%
- inhibition [34]: 26%

Structure (SMILES): CS(=O)(=O)NC(=O)c1ccc(OCC23CC4CC(CC(C4)C2)C3)c(Cl)c1
- IC50 [1]: 330 nM
- IC50 [2]: 59 nM

Structure (SMILES): CS(=O)(=O)NC(=O)c1cc(Cl)c(OCC23CC4CC(C2)C(F)(F)C(C4)C3)cc1F
- IC50 [1]: 290 nM

Structure (SMILES): CS(=O)(=O)NC(=O)c1cc(Cl)c(OCCC2CCCCC2)cc1F
- logD [3]: 1.5
- IC50 [1]: 500 nM
- IC50 [2]: 17 nM

Structure (SMILES): CS(=O)(=O)NC(=O)c1cc(Cl)c(OC2CCCCC2)cc1F
- logD [3]: 1.3
- IC50 [1]: 1200 nM
- IC50 [2]: 260 nM

Structure (SMILES): CS(=O)(=O)NC(=O)c1cc(Cl)c(OCC2CCCCC2)cc1F
- logD [3]: 1.4
- IC50 [1]: 180 nM
- IC50 [2]: 43 nM

Structure (SMILES): CCC1(COc2cc(F)c(C(=O)NS(=O)(=O)C3CC3)cc2C2CC2)CCC(F)(F)CC1
- IC50 [1]: 17 nM
- IC50 [2]: 5 nM
